This assay relates to cell laminate comprising a vascular endothelial cell layer and a smooth muscle cell layer on an HCM. The experiment in a line: Evaluation of response to physiologically active substances (thrombin added to cell laminate, microscopy). It counts as cell-based. To be noted: 37° C., 30 minutes, rat VEC/SMC-HCM insert. On the procedure:
(1) 0.1 mg (100 UN) of thrombin (#T7009-100UN, Sigma) was dissolved in 100 μL of physiological saline to prepare a thrombin solution having a concentration of 1000 U/mL. The thrombin solution was further diluted with HBSS(+) to prepare a 25 U/mL thrombin solution and a 100 U/mL thrombin solution.
(2) 900 μL of HBSS(+) was added to each of the wells of a 24-well plate.
(3) The inserts comprising the cell laminate were taken out of the medium, the medium was removed from the inner side of each insert using an aspirator, and the inserts were placed in the wells.
(4) 200 μL of either HBSS(+) (control), the 25 U/mL thrombin solution, or the 100 U/mL thrombin solution was added to the inner side of each of the inserts placed on the wells, and the inserts were incubated at 37° C. for 30 minutes.
(5) The state of the cell laminate was observed under a microscope. The microscopic image of the cell laminate is shown in FIG. 9 (superimposed image of red fluorescence: VE-cadherin and green fluorescence: α-smooth muscle actin).

This is an account of results in patent US12351789B2, “Method for producing cell laminate” (FUJIFILM CORPORATION, priority 2017, dated 2025).

Take thrombin: for the setting “25 U/mL or 100 U/mL thrombin solution, HBSS(+) control”, the cell contraction result was “cell contraction due to activation of actin stress fibers caused by the addition of thrombin was observed”. The “dependence of cell contraction on thrombin concentration” value (25 U/mL versus 100 U/mL thrombin solution) was “Higher thrombin concentrations caused stronger cell contractions”.
